Patent US10272120B2, “Synergistic composition comprising propolis and carnosic acid for use in the prevention and treatment of candidiasis” (priority 2015, dated 2019)
≈ marks a conversion by molar mass, not a printed value.

Experiments:
[1] = tested on: C. albicans strain SC5314; assay: Yeast-hyphae dimorphic transition induced by human serum; format: cell-based, Candida albicans; conditions: YPD plus human serum at 10%, 37° C., different concentrations
Protocol: FIG. 9. Effect of the addition of carnosic acid on the percentage of yeast-hyphae dimorphic transition in C. albicans induced by human serum at 37° C. Exponential cultures of strain SC5314 were centrifuged and resuspended in fresh YPD medium preheated at 37° C. Identical samples were treated with carnosic acid at the indicated concentrations, using an untreated sample and a sample maintained at 28° C. as controls. The percentage of germ tubes emission (first stage of the formation of hyphae) was calculated by direct microscopic count with a hemocytometer.
FIG. 10. Micrographs illustrating the effect of carnosic acid on the dimorphism of C. albicans. In the control assay with the lowest concentration of carnosic acid, a high percentage of filamentation (grouped hyphae forming a mycelium) which decreased proportionally with increasing dose of the latter, was observed.
These assays are also complemented with the evaluation of the influence on the morphology (dimorphism) of C. albicans. In FIGS. 9 and 10, the effect of the carnosic acid on the dimorphic transition of the strain SC5314 of C. albicans was explored, given that the yeast-mycelium dimorphic transition is considered to be a factor of virulence in this opportunistic pathogen. To do this, an “overnight” culture was […] to a low optical density (0.1) and left to grow to 0.3 at 37° C. […]

parental strain SC5314 [2] = assay: Inhibition kinetics / synergy assay, liquid medium and colony formation on plate; format: cell-based, Candida albicans; conditions: carnosic acid 50 μg/ml, propolis 3 200 μg/ml
Protocol: FIG. 8. (A) Measurement of the kinetic growth in the parental strain SC5314. With regard to previous assays, the following modifications were used: (i) Reduction of the concentration of carnosic acid to 50 μg/ml, maintaining that of the propolis 3 (PP) at (200 μg/ml), in order to better monitor its effect on cell viability. […] (B) Assay of colony formation on plate.
Then, in strain SC5314, as it is a reference lineage, new experiments simultaneously measuring the kinetics of inhibition of cell viability at sub-inhibitory concentrations of the carnosic acid (up to 50 μg/ml) and propolis 3 (200 μg/ml) were conducted together with the synergy assays between the two. The tested aliquots come from a single initial exponential culture and, therefore, the physiological state of the cells is identical.

[3] = tested on: C. albicans yeast (blastoconides) CAI-4; assay: Cell morphology by optical microscopy (Nomarsky); format: cell-based, Candida albicans
Protocol: FIG. 4. Inspection of the cell morphology by optical microscopy, using the interference contrast of “Nomarsky” on C. albicans yeast (blastoconides) CAI-4, treated with: propolis 3 (200 μg/ml), carnosic acid (100 μg/ml) and the combination of both compounds.
As an essential tool in understanding the effectiveness of these compounds on C. albicans cell viability, detailed studies on the effects of their administration on the cell morphology of this opportunistic pathogen, visualized by optical microscopy, were performed (FIGS. 4, 5 and 6).

C. albicans strain CAI-4 = assay: Viability assay in liquid YPD medium and colony formation on solid YPD; format: cell-based, Candida albicans; conditions: concentrations of 200 y 2000 μg/ml
Protocol: FIG. 1. Viability assay on liquid YPD medium (A) and colony formation on solid YPD medium (B) on C. albicans strain CAI-4 to different concentrations of carnosic acid, propolis 2 and 3. It started from a preinocolum culture incubated overnight at 28° C.; the next day refreshed in YPD medium to a D.O600 nm=0.3. The culture was allowed to grow to D.O600 nm=0.6 at 37° C., moment at which the compounds, object of the study, are added for one hour at the same temperature. Additionally, a positive control of antifungal activity with amphotericin B was included under the same conditions.
(§1) Assays were carried out in liquid YPD medium (1% yeast extract, 2% peptone and 2% glucose) at 37° C. Initially the C. albicans strain CAI-4 was used, but as it presented growth problems during the calculation of the MIC, it was replaced by its parental (SC5314, wild type), widely used in the laboratory. The procedure consisted of applying different concentrations of carnosic acid and propolis (one hour, unless other times are indicated) on exponential cultures of C. albicans grown in YPD. The percentage of cell viability was determined by counting the number of viable cells in the solid YPD medium after incubation at 37° C. for 24-48 hours (FIG. 1).

[4] = tested on: C. albicans standard strain SC5314; assay: Viability assay in liquid medium and colony formation on solid YPD; format: cell-based, Candida albicans; conditions: various concentrations, exponential YPD liquid cultures
Source text: FIG. 2. Viability assay in liquid medium of the C. albicans standard strain SC5314 to different concentrations of carnosic acid and propolis 1. As a positive control Amphotericin B was used. Due to the particular behaviour of the CAI-4 strain when carrying out MICs, it was decided to use the wild strain SC5314 ([…] parental), in order to validate the effect of the compounds of study on an international C. albicans reference strain. The assay followed the same procedure described in FIG. 1.
FIG. 3. Assay of macroscopic colony formation in solid YPD medium. The C. albicans standard strain SC5314 was used to the concentrations of carnosic acid and propolis 1 indicated. As a positive control Amphotericin B was used. For further details of methodology see FIG. 1.
as §1, with “The procedure consisted of applying different concentrations of carnosic acid and propolis (one hour, unless other times are indicated) on exponential cultures of C. albicans grown in YPD.” left out, “1). […]” for “1).”

SC5314 strain = assay: Cell morphology by optical microscopy; format: cell-based, Candida albicans
Source text: FIG. 5. Optical micrographs (100×) where it can be seen how the treatment with increasing doses of carnosic acid caused visible alterations in the cellular morphology, resulting in cells with a more swollen and deformed aspect, with increased birefringence and the apparent loss of ability to transition dimorphically to mycelial structures (hyphae).
FIG. 6. Optical micrographs (40×) taken in order to provide better visual field with higher cell density, using the same cultures as in FIG. 5. The presence of swollen cells is very significant in the image, with a carnosic acid concentration of 100 μg/ml.

parental strain SC5314 [5] = assay: MIC determination; format: cell-based; conditions: Candida albicans
CAI-4 = assay: MIC determination; format: cell-based; conditions: Candida albicans; strain CAI-4

SMILES: CC(C)c1cc2c(c(O)c1O)[C@@]1(C(=O)O)CCCC(C)(C)[C@@H]1CC2 [carnosic acid]
- filamentation (yeast-mycelium dimorphic transition) [1]: reduced the filamentation of C. albicans in a dose-dependent way
- antifungal action considered individually (parental strain SC5314 [2]): strong antifungal action
- growth on plate (FIG. 8) (parental strain SC5314 [2]; combination read at one hour): growth is visible
- effect on cell morphology ([3]; more significant after five hours of treatment): apparent cellular reduction of size (volume)
- cell morphology (FIG. 4 legend) ([3]; propolis 3 200 μg/ml, carnosic acid 100 μg/ml, and the combination): significant reduction in cell size
- antifungal effect (C. albicans strain CAI-4): strong antifungal effect
- cell viability [4]: significant decrease in cell viability
- cell morphology (SC5314 strain; 100 μg/ml of carnosic acid, Nomarsky contrast): growing swelling
- cells seen in micrograph (40×) (SC5314 strain; 500 μg/ml): small number of cells
- cell morphology (SC5314 strain; increasing concentration of carnosic acid): swelling and deformation of the yeast cells
- MIC (parental strain SC5314 [5]): 250 µg/mL (≈ 752 µM)
- MIC (CAI-4): 250 µg/mL (≈ 752 µM)
